Literature values, collected in patent publication US6362169B1 (priority 1998, dated 2002).

Test system: Helicobacter pylori
Conditions: combination use with a proton pump inhibitor or a bismuth preparation (WO 97/02039)

CO[C@H]1/C=C/O[C@@]2(C)Oc3c(C)c(O)c4c(c3C2=O)C2=NC3(CCN(CC(C)C)CC3)NC2=C(NC(=O)/C(C)=C\C=C\[C@H](C)[C@H](O)[C@@H](C)[C@@H](O)[C@@H](C)[C@H](OC(C)=O)[C@@H]1C)C4=O [Rifabutin, rifabutin]
effect on minimum inhibitory concentration by combination use: synergistic effect
